Species on record: Rattus norvegicus
Assay: DrugMatrix - Regimen: Daily Repeat
Type: toxicity, organism-based, Sprague-Dawley
Set-up: regimen Daily Repeat, gender Male, age 6-8 weeks
Conditions: in vivo, po, route oral GAVAGE, vehicle 100 % WATER; for ABSOLUTE BASOPHIL / ABSOLUTE EOSINOPHIL / ABSOLUTE LYMPHOCYTE / ABSOLUTE MONOCYTE / ABSOLUTE SEGMENTED NEUTROPHIL / BASOPHIL / EOSINOPHIL / ERYTHROCYTE COUNT / HEMATOCRIT / HEMOGLOBIN / LEUKOCYTE COUNT / LYMPHOCYTE / MEAN CORPUSCULAR HEMOGLOBIN / MEAN CORPUSCULAR HEMOGLOBIN CONCENTRATION / MEAN CORPUSCULAR VOLUME / MONOCYTE / NEUTROPHIL / NUCLEATED RED BLOOD CELLS / PLATELET COUNT: tissue Blood; for ALANINE AMINOTRANSFERASE / ALBUMIN / ALKALINE PHOSPHATASE / ASPARTATE AMINOTRANSFERASE / BLOOD UREA NITROGEN / CARBON DIOXIDE / CHLORIDE / CHOLESTEROL / CREATINE PHOSPHOKINASE / CREATININE / GLUCOSE / LACTATE DEHYDROGENASE / LIPASE / PHOSPHORUS / POTASSIUM / SODIUM / TOTAL BILIRUBIN / TOTAL PROTEIN / URIC ACID: tissue Plasma
[1] = 0 mg/kg, 72 h, dose level Control, time 3 day
[2] = 0 mg/kg, 120 h, dose level Control, time 5 day
[3] = 200 mg/kg, 72 h, dose level Low, time 3 day

SMILES: CC(O)CO (centres undefined) [PROPYLENE GLYCOL]
- ABSOLUTE BASOPHIL [1]: 0 CELLS/uL
- ABSOLUTE EOSINOPHIL [1]: 40 CELLS/uL
- ABSOLUTE LYMPHOCYTE [1]: 13599.5 CELLS/uL
- ABSOLUTE MONOCYTE [1]: 239.33 CELLS/uL
- ABSOLUTE SEGMENTED NEUTROPHIL [1]: 1021.17 CELLS/uL
- BASOPHIL [1]: 0%
- EOSINOPHIL [1]: 0.33%
- ERYTHROCYTE COUNT [1]: 5.71 x10E6/uL
- HEMATOCRIT [1]: 36.35%
- HEMOGLOBIN [1]: 14.05 G/DL
- LEUKOCYTE COUNT [1]: 14.9 x10E3/uL
- LYMPHOCYTE [1]: 91%
- MEAN CORPUSCULAR HEMOGLOBIN [1]: 24.62 pg
- MEAN CORPUSCULAR HEMOGLOBIN CONCENTRATION [1]: 38.65 G/DL
- MEAN CORPUSCULAR VOLUME [1]: 63.7 fL
- MONOCYTE [1]: 1.5%
- NEUTROPHIL [1]: 7.17%
- NUCLEATED RED BLOOD CELLS [1]: 0.33 /100WBC
- PLATELET COUNT [1]: 1225.5 x10E3/uL
- ALANINE AMINOTRANSFERASE [1]: 48.5 u/L
- ALBUMIN [1]: 4.18 G/DL
- ALKALINE PHOSPHATASE [1]: 390.83 u/L
- ASPARTATE AMINOTRANSFERASE [1]: 89 u/L
- BLOOD UREA NITROGEN [1]: 14.83 mg/dL
- CARBON DIOXIDE [1]: 24.83 mmol/L
- CHLORIDE [1]: 100.83 MEQ/L
- CHOLESTEROL [1]: 72.5 mg/dL
- CREATINE PHOSPHOKINASE [1]: 503 u/L
- CREATININE [1]: 0.2 mg/dL
- GLUCOSE [1]: 163 mg/dL
- LACTATE DEHYDROGENASE [1]: 316.83 u/L
- LIPASE [1]: 9.83 u/L
- PHOSPHORUS [1]: 11.57 mg/dL
- POTASSIUM [1]: 6.16 MEQ/L
- SODIUM [1]: 142.62 MEQ/L
- TOTAL BILIRUBIN [1]: 0.2 mg/dL
- TOTAL PROTEIN [1]: 5.8 G/DL
- URIC ACID [1]: 1.65 mg/dL
- ABSOLUTE BASOPHIL [2]: 0 CELLS/uL
- ABSOLUTE EOSINOPHIL [2]: 21 CELLS/uL
- ABSOLUTE LYMPHOCYTE [2]: 14288.5 CELLS/uL
- ABSOLUTE MONOCYTE [2]: 205.33 CELLS/uL
- ABSOLUTE SEGMENTED NEUTROPHIL [2]: 968.5 CELLS/uL
- BASOPHIL [2]: 0%
- EOSINOPHIL [2]: 0.17%
- ERYTHROCYTE COUNT [2]: 5.83 x10E6/uL
- HEMATOCRIT [2]: 36.53%
- HEMOGLOBIN [2]: 14.4 G/DL
- LEUKOCYTE COUNT [2]: 15.48 x10E3/uL
- LYMPHOCYTE [2]: 92%
- MEAN CORPUSCULAR HEMOGLOBIN [2]: 24.72 pg
- MEAN CORPUSCULAR HEMOGLOBIN CONCENTRATION [2]: 39.43 G/DL
- MEAN CORPUSCULAR VOLUME [2]: 62.68 fL
- MONOCYTE [2]: 1.33%
- NEUTROPHIL [2]: 6.5%
- NUCLEATED RED BLOOD CELLS [2]: 0.17 /100WBC
- PLATELET COUNT [2]: 1280.5 x10E3/uL
- ALANINE AMINOTRANSFERASE [2]: 50 u/L
- ALBUMIN [2]: 4.28 G/DL
- ALKALINE PHOSPHATASE [2]: 380.17 u/L
- ASPARTATE AMINOTRANSFERASE [2]: 82.67 u/L
- BLOOD UREA NITROGEN [2]: 15.33 mg/dL
- CARBON DIOXIDE [2]: 27.17 mmol/L
- CHLORIDE [2]: 100.33 MEQ/L
- CHOLESTEROL [2]: 60.67 mg/dL
- CREATINE PHOSPHOKINASE [2]: 441.5 u/L
- CREATININE [2]: 0.16 mg/dL
- GLUCOSE [2]: 146 mg/dL
- LACTATE DEHYDROGENASE [2]: 189.33 u/L
- LIPASE [2]: 9.17 u/L
- PHOSPHORUS [2]: 11.67 mg/dL
- POTASSIUM [2]: 6.86 MEQ/L
- SODIUM [2]: 142.33 MEQ/L
- TOTAL BILIRUBIN [2]: 0.2 mg/dL
- TOTAL PROTEIN [2]: 6.12 G/DL
- URIC ACID [2]: 1.82 mg/dL
- ABSOLUTE BASOPHIL [3]: 0 CELLS/uL
- ABSOLUTE EOSINOPHIL [3]: 56 CELLS/uL
- ABSOLUTE LYMPHOCYTE [3]: 15882 CELLS/uL
- ABSOLUTE MONOCYTE [3]: 135.33 CELLS/uL
- ABSOLUTE SEGMENTED NEUTROPHIL [3]: 1393.33 CELLS/uL
- BASOPHIL [3]: 0%
- EOSINOPHIL [3]: 0.33%
- ERYTHROCYTE COUNT [3]: 5.52 x10E6/uL
- HEMATOCRIT [3]: 35.37%
- HEMOGLOBIN [3]: 13.53 G/DL
- LEUKOCYTE COUNT [3]: 17.47 x10E3/uL
- LYMPHOCYTE [3]: 90.67%
- MEAN CORPUSCULAR HEMOGLOBIN [3]: 24.5 pg
- MEAN CORPUSCULAR HEMOGLOBIN CONCENTRATION [3]: 38.27 G/DL
- MEAN CORPUSCULAR VOLUME [3]: 64.1 fL
- MONOCYTE [3]: 0.67%
- NEUTROPHIL [3]: 8.33%
- NUCLEATED RED BLOOD CELLS [3]: 0.33 /100WBC
- PLATELET COUNT [3]: 1345.33 x10E3/uL
- ALANINE AMINOTRANSFERASE [3]: 59 u/L
- ALBUMIN [3]: 4.47 G/DL
- ALKALINE PHOSPHATASE [3]: 378.33 u/L
- ASPARTATE AMINOTRANSFERASE [3]: 90.33 u/L
- BLOOD UREA NITROGEN [3]: 16.33 mg/dL
- CARBON DIOXIDE [3]: 27.33 mmol/L
- CHLORIDE [3]: 99.67 MEQ/L
- CHOLESTEROL [3]: 81.33 mg/dL
- CREATINE PHOSPHOKINASE [3]: 318 u/L
- CREATININE [3]: 0.22 mg/dL
- GLUCOSE [3]: 153.67 mg/dL
- LACTATE DEHYDROGENASE [3]: 212.33 u/L
- LIPASE [3]: 9 u/L
- PHOSPHORUS [3]: 13.4 mg/dL
- POTASSIUM [3]: 7.26 MEQ/L
- SODIUM [3]: 145.23 MEQ/L
- TOTAL BILIRUBIN [3]: 0.2 mg/dL
- TOTAL PROTEIN [3]: 6.13 G/DL
- URIC ACID [3]: 2.2 mg/dL
